Source: patent US7786088B2, “Targeting vector to the urokinase plasminogen activator receptor” (University of Iowa Research Foundation, priority 2000, dated 2010)

Tests used:
human airway epithelia [1] = assay: fluid phase endocytosis, uptake of Texas Red dextran; assay type: cell-based; conditions: 0.15 μM peptide applied to apical surface, FIG. 4
Procedure: B. Assay for Fluid Phase Endocytosis: Cells were chilled on ice for 15 minutes and then incubated with […] uPA or 0.15 μM u7-peptide (SEQ ID NO:1) added to the apical surface for 30 minutes at 4° C. Following 3 washes in PBS, cells were incubated with 0.5 mg/ml Texas Red-labeled fixable dextran (3,000 MW, Molecular Probes, Eugene, Oreg.) for 10 minutes at 37° C. Following 3 washes in PBS, cells were fixed with 4% paraformaldehyde, mounted onto class slides with Vectashield (Vector Laboratories, Inc., Burlingame, Calif.), and viewed by fluorescence microscopy. Control cells were incubated with Texas Red-labeled dextran alone to measure basal levels of endocytosis. Monkey tracheal explants were assayed as described for primary cell cultures. To evaluate time-dependent changes, cells were treated as described above with uPA (50 nM) followed by incubations in Texas Red dextran for 5, 10, 30 or 60 minutes at 37° C. […]
B. Effect of uPA on Fluid Phase Endocytosis in Human Airway Epithelia: Stimulation of endocytosis by uPA was determined by measuring the uptake of Texas Red-conjugated dextran, a fluid phase marker. […]

human airway epithelia [2] = assay: gene transfer by adenovirus:CaPi coprecipitate (β-galactosidase activity); assay type: cell-based
Procedure: B. Evaluation of Gene Transfer: The apical surface of human airway epithelia was washed once with PBS. Adenovirus was applied at a multiplicity of infection (MOI) of 50 to the apical surface for 30 minutes at 37° C. Adenovirus was applied either alone or in a CaPi coprecipitate as previously described by Fasbender et al., J. Clin. Invest. 102:184-193 (1998) and Lee et al., Hum. Gene Ther. 10:603-13 (1999) (incorporated herein by reference). Following 3 washes, cells were returned to the incubator and assayed for gene transfer 48 hours later. AAV2 was applied at an MOI<1 to the apical surface for 30 minutes at 37° C. AAV2 was applied either alone or on a CaPi coprecipitate formed as previously described by Fasbender et al. and Lee et al. for adenovirus. Following 3 washes, cells were returned to the incubator and assayed for gene transfer 14 days later. Total β-galactosidase activity was measured using a commercially available technique (Galacto-Light, Topix, Bedford, Mass.).

human airway epithelia [3] = assay: tight junction integrity measured by transepithelial resistance; conditions: following uPA or u7 treatment
Procedure: D. uPA Enhancement of Gene Transfer: The ability of uPA to enhance gene transfer by nonspecifically bound vector was tested.

CF airway epithelia = assay: cAMP-stimulated short-circuit current after Ad2/CFTR-16:CaPi gene transfer; assay type: cell-based, human; conditions: FIG. 5C; for correction of Cl− channel defect (cAMP-stimulated current): CF airway epithelia, Ad2/CFTR-16 in CaPi coprecipitate
Procedure: C. Measurement of Transepithelial Electrical Properties: Epithelia were mounted in modified Ussing chambers (Jim's Instruments, Iowa City, Iowa) and bathed with Ringer's solution on their submucosal side (135 mM NaCl, 2.4 K2HPO4, 0.6 mM […], 1.2 mM CaCl2, 1.2 mM MgCl2, 5 mM Hepes, pH 7.4 and 10 mM dextrose). The mucosal surface was bathed in the identical solution, except that 135 mM NaGluconate replaced the 135 mM NaCl. In this way, a transepithelial Cl^− concentration gradient was established in order to magnify changes in Cl^− transport. The transepithelial Na^+ transport was blocked with mucosal amiloride (10 μM). Mucosal DIDS (100 μM) blocked non-CFTR Cl^− transport. The cAMP agonists, forskolin (10 μM) and IBMX (100 μM) were applied to both solutions to stimulate transepithelial Cl^− transport via CFTR.
The ability of uPA to enhance gene transfer and expression of CFTR in differentiated CF airway epithelia was also tested.

| Substance | stimulation of fluid phase endocytosis (human airway epithelia [1]) | increase in gene transfer compared to the coprecipitate alone (human airway epithelia [2]; apical application before CaPi:adenovirus coprecipitates (uPA 50 nM), assayed 48 hours later, FIG. 5A) | effect on gene transfer by CaPi coprecipitate (in words) (human airway epithelia [2]; compared with uPA) | transepithelial resistance (human airway epithelia [3]) | correction of Cl− channel defect (cAMP-stimulated current) (CF airway epithelia) | correction of Cl− channel defect (cAMP-stimulated current) (CF airway epithelia; listed as u7 peptide) | uptake of a vector expressing CFTR (CF airway epithelia; cystic fibrosis (CF) airway epithelia) |
| --- | --- | --- | --- | --- | --- | --- | --- |
| CLNGGTC (listed as Homo sapiens) [u7-peptide, seven residue peptide comprising amino acids 13-19 of uPA] | stimulated fluid phase endocytosis | 8-10 fold | effect similar to uPA | did not change | further enhanced the correction | to a greater extent than the full length uPA | enhanced the uptake |
| CTCGNCL [scrambled peptide, reference compound] | did not | – | – | – | – | – | – |
